According to patent US6342502B1, “Thieno[2,3-d]pyrimidine diones and their use in the treatment of reversible obstructive airways diseases” (AstraZeneca AB, priority 1997, dated 2002):

SMILES | melting point [°C]
CC(C)Cn1c(=O)n(C)c(=O)c2cc(C(O)c3ccc([N+](=O)[O-])cc3)sc21 (centres unmarked) [Example 90, 6-[1-Hydroxy-(4-nitrophenyl)methyl]-3-methyl-1-(2-methylpropyl)thieno[2,3-d]pyrimidin-2,4(1H,3H)-dione] | 127
CC(C)Cn1c(=O)n(C)c(=O)c2cc(Cc3ccc(N)cc3)sc21 [Example 92, 6-(4-Aminophenylmethyl)-3-methyl-1-(2-methylpropyl)thieno[2,3-d]pyrimidine-2,4-(1H, 3H)-dione] | 104
CC(C)Cn1c(=O)n(C)c(=O)c2c(Sc3ccc([N+](=O)[O-])cn3)c(Cc3cccc4ccccc34)sc21 [Example 37, 3-Methyl-1-(2-methylpropyl)-6-(1-naphthalenylmethyl)-5-[(5-nitropyridin-2-yl)thio]thieno[2,3-d]pyrimidine-2,4-(1H, 3H)-dione] | 200 to 201
CC(C)Cn1c(=O)n(C)c(=O)c2c(Sc3cccc(N(S(C)(=O)=O)S(C)(=O)=O)c3)c(Cc3cccc4ccccc34)sc21 [Example 32, 5-{[3-{(Bis-methanesulfonyl)amino}phenyl]thio}-3-methyl-1-(2-methylpropyl)-6-(1-naphthalenylmethy)theino[2,3d]pyrimidine-2,4(1H, 3H)-dione] | 216 to 217
CC(=O)NCCCSc1c(Cc2cccc3ccccc23)sc2c1c(=O)n(C)c(=O)n2CC(C)C [Example 41] | 114 to 117
CC(C)Cn1c(=O)n(C)c(=O)c2c(SCCCN=[N+]=[N-])c(Cc3cccc4ccccc34)sc21 [Example 39, 5-[(3-Azidopropyl)thio]-3-methyl-1-(2-methylpropyl)-6-(1-naphthalenylmethyl)thieno[2,3-d]pyrimidine-2,4(1H,3H)-dione] | 94 to 96
CC(C)Cn1c(=O)n(C)c(=O)c2cc(C(O)c3cccc(F)c3)sc21 (centres unmarked) [Example 51, 6-[(1-Hydroxy-1-(3-fluorophenyl))methyl]-3-methyl-1l-(2-methylpropyl)thieno[2,3-d]pyrimiidine-2,4-(1H, 3H)-dione] | 54
CC(C)Cn1c(=O)n(C)c(=O)c2c(Sc3ccccn3)c(Cc3cccc4ccccc34)sc21 [Example 5, 3-Methyl-1-(2-methylpropyl)-6-(1-naphthalenylmethyl)-5-[(2-pyridinyl)thio]thieno[2,3-d]pyrimidine-2,4(1H,3H)-dione] | 148 to 149
CC(C)Cn1c(=O)n(C)c(=O)c2c(S(=O)(=O)CCCC(=O)O)c(Cc3cccc4ccccc34)sc21 [Example 11, 4-[(1,2,3,4-Tetrahydro-3-methyl-1-(2-methylpropyl)-6-(1-naphthalenylmethyl)-2,4-dioxothieno[2,3-d]pyrimidin-5-yl)sulfonyl]butanoic acid] | 174 to 181
CC(C)Cn1c(=O)n(C)c(=O)c2c(C(=O)NCC(=O)O)c(Cc3cccc4ccccc34)sc21 [Example 21, 2-{[1,2,3,4-Tetrahydro-3-methyl-1-(2-methylpropyl)-6-(1-naphthalenylmethyl)-2,4-dioxothieno[2,3-d]pyrimidin-5-yl]carboxamido}acetic acid] | 218 to 219
CC(C)Cn1c(=O)n(C)c(=O)c2c(SCCCO)c(Cc3cccc(F)c3)sc21 [Example 86] | 99 to 100
CC(C)Cn1c(=O)n(C)c(=O)c2c(SCC(C)O)c(Cc3cccc4ccccc34)sc21 (racemic) [Example 15, (±) 5-[(2-Hydroxypropyl)thio]-3-methyl-1-(2-methylpropyl)-6-(1-naphthalenylmethyl)thieno[2,3-d]pyrimidine-2,4(1H,3H)-dione] | 126 to 128
CC(C)Cn1c(=O)n(C)c(=O)c2c(NC(=O)OCCO)c(Cc3cccc4ccccc34)sc21 [Example 49, 2-Hydroxyethyl [1,2,3,4-tetrahydro-3-methyl-1-(2-methylpropyl)-6-(1-naphthalenylmethyl)-2,4-dioxothieno[2,3-d]pyrimidin-5-yl]carbamate] | 201 to 202
CC(C)Cn1c(=O)n(C)c(=O)c2cc(Cc3cccc4ccccc34)sc21 [Example 4] | 137 to 138
CC(C)Cn1c(=O)n(C)c(=O)c2cc(Cc3ccccc3)sc21 [Example 12, 6-Benzyl-3-methyl-1-(2-methylpropyl)thieno[2,3-d]pyrimidine-2,4(1H,3H)-dione] | 72 to 73
CC(C)Cn1c(=O)n(C)c(=O)c2c(Sc3ccc(N)cn3)c(Cc3cccc4ccccc34)sc21 [Example 87, 5-[(5-Amino-2-pyridinyl)thio]-3-methyl-1-(2-methylpropyl)-6-(1-naphthalenylmethyl)thieno[2,3-d]pyrimidine-2,4(1H,3H)-dione] | 208 to 209
CC(C)Cn1c(=O)n(C)c(=O)c2cc(C(O)c3ccccc3)sc21 (centres unmarked) [Example 14, 6-[(1-Hydroxy-1-phenyl)methyl]-3-methyl-1-(2-methylpropyl)thieno[2,3-d]pyrimidine-2,4(1H,3H)-dione] | 140 to 142
COC(=O)CCCSc1c(Cc2cccc3ccccc23)sc2c1c(=O)n(C)c(=O)n2CC(C)C [Example 7, Methyl 4-[(1,2,3,4-tetrahydro-3-methyl-1-(2-methylpropyl)-6-(1-naphthalenylmethyl)-2,4-dioxothieno[2,3-d]pyrimidin-5-y)thio]butanoate] | 111 to 112
CC(C)Cn1c(=O)n(C)c(=O)c2c(Sc3cccc(O)c3)c(Cc3cccc4ccccc34)sc21 [Example 27, 5-[(3-Hydroxyphenyl)thio]-3-methyl-1-(2-methylpropyl)-6-(1-naphthalenylmethyl)thieno[2,3-d]pyrimidine-2,4-(1H,3H)-dione] | 200 to 201
CC(C)Cn1c(=O)n(C)c(=O)c2c(SCCC(C)O)c(Cc3cccc4ccccc34)sc21 (racemic) [Example 85, (±)-5-[(3-Hydroxybutyl)thio]-3-methyl-1-(2-methylpropyl)-6-(1-naphthalenylmethyl)thieno2,3-d]pyrimidine-2,4(1H,3H)-dione] | 162 to 163
CC(C)Cn1c(=O)n(C)c(=O)c2c(NC(=O)N(C)CCO)c(Cc3cccc4ccccc34)sc21 [Example 50] | 151 to 152
CC(C)Cn1c(=O)n(C)c(=O)c2c(S(=O)(=O)c3cccc(O)c3)c(Cc3cccc4ccccc34)sc21 [Example 29] | 209 to 210
CC(C)Cn1c(=O)n(C)c(=O)c2c(Sc3cccc(N)c3)c(Cc3cccc4ccccc34)sc21 [Example 31, 5-[(3-Aminophenyl)thio]-3-methyl-1-(2-methylpropyl)-6-(1-naphthalenylmethyl)-thieno[2,3-d]pyrimidine-2,4-(1H, 3H)-dione] | 149 to 150
CC(C)n1c(=O)n(C)c(=O)c2cc(Cc3ccccc3)sc21 [Example 13, 3-Methyl-1-(1-methylethyl)-6-(phenylmethyl)thieno[2,3-d]pyrimidine-2,4(1H,3H)-dione] | 91 to 93
C=C(C)Cn1c(=O)n(C)c(=O)c2cc(Cc3ccc(OC)cc3)sc21 [Example 2, 6-(4-Methoxyphenylmethyl)-3-methyl-1-(2-methyl-2-propenyl)thieno[2,3-d]pyrimidine-2,4(1H,3H)-dione] | 111
CC(C)Cn1c(=O)n(C)c(=O)c2cc(Cc3ccccc3C(N)=O)sc21 [Example 82, 2-[(1,2,3,4-tetrahydro-3-methyl-1-(2-methylpropyl)-2,4-dioxothieno[2,3-d]pyrimidin-6-yl)methyl]benzamido] | 183
